Reference: ChEMBL document CHEMBL1201862, “PubChem BioAssay data set” (2004)
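The compound was tested at five concentrations on cells cultured in 96-well plates, with a 48-hour exposure period. GI50 = concentration required for 50% inhibition of growth.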 Activity calls are given as the source filed them. Cut-off read from the data, not from the text of the source: active = GI50 up to about 1.1 µM and inactive = higher.

Key:
Test in all cases: NCI tumour cell line growth inhibition, 48 h
[1] = test system: SK-MEL-2
[2] = test system: UACC-257
[3] = test system: TK-10
[4] = test system: HCC 2998
[5] = test system: DMS-273
[6] = test system: U-251
[7] = test system: RPMI-8226
[8] = test system: KM-20L2
[9] = test system: DMS-114
[10] = test system: OVCAR-5
[11] = test system: OVCAR-3
[12] = test system: SF-539
[13] = test system: KM12
[14] = test system: OVCAR-8
[15] = test system: COLO 205
[16] = test system: SNB-19
[17] = test system: RXF 393
[18] = test system: RXF 631
[19] = test system: K562
[20] = test system: OVCAR-4
[21] = test system: SF-295
[22] = test system: SK-MEL-28
[23] = test system: A549
[24] = test system: XF498
[25] = test system: 786-0
[26] = test system: HT-29
[27] = test system: UO-31
[28] = test system: LXFL 529
[29] = test system: HCT-116
[30] = test system: HCT-15
[31] = test system: SNB-75
[32] = test system: NCI-H226
[33] = test system: HOP-18
[34] = test system: CAKI-1
[35] = test system: UACC-62
[36] = test system: SN12C
[37] = test system: SNB-78
[38] = test system: HOP-62
[39] = test system: IGROV-1
[40] = test system: DLD-1
[41] = test system: EKVX
[42] = test system: M14
[43] = test system: SW-620
[44] = test system: LOX IMVI
[45] = test system: HOP-92
[46] = test system: NCI-H460
[47] = test system: NCI-H23
[48] = test system: SK-OV-3
[49] = test system: M19-MEL
[50] = test system: ACHN
[51] = test system: SF-268
[52] = test system: Malme-3M
[53] = test system: HL-60
[54] = test system: NCI-H522
[55] = test system: MOLT-4
[56] = test system: A498
[57] = test system: CCRF-CEM
[58] = test system: SK-MEL-5
[59] = test system: SR

Structure (SMILES): O=C1C(=O)N(C2C3CC4CC(C3)CC2C4)C(=O)C(=O)C1c1nc2ccccc2o1 (stereo not given)
- GI50 [1]: > 100 µM (inactive)
- GI50 [2]: 26.1 µM (inactive)
- GI50 [3]: > 100 µM (inactive)
- GI50 [4]: 57.5 µM (inactive)
- GI50 [5]: > 100 µM (inactive)
- GI50 [6]: 23.1 µM (inactive)
- GI50 [7]: 52.4 µM (inactive)
- GI50 [8]: 82 µM (inactive)
- GI50 [9]: 19.4 µM (inactive)
- GI50 [10]: 23.2 µM (inactive)
- GI50 [11]: 25.1 µM (inactive)
- GI50 [12]: 90.6 µM (inactive)
- GI50 [13]: > 100 µM (inactive)
- GI50 [14]: > 100 µM (inactive)
- GI50 [15]: 51.6 µM (inactive)
- GI50 [16]: > 100 µM (inactive)
- GI50 [17]: 70 µM (inactive)
- GI50 [18]: > 100 µM (inactive)
- GI50 [19]: 21.1 µM (inactive)
- GI50 [20]: > 100 µM (inactive)
- GI50 [21]: > 100 µM (inactive)
- GI50 [22]: > 100 µM (inactive)
- GI50 [23]: > 100 µM (inactive)
- GI50 [24]: 74 µM (inactive)
- GI50 [25]: 26.3 µM (inactive)
- GI50 [26]: 20.7 µM (inactive)
- GI50 [27]: > 100 µM (inactive)
- GI50 [28]: 46.9 µM (inactive)
- GI50 [29]: 37 µM (inactive)
- GI50 [30]: 43.6 µM
- GI50 [31]: 33.1 µM (inactive)
- GI50 [32]: > 100 µM (inactive)
- GI50 [33]: 54.2 µM (inactive)
- GI50 [34]: > 100 µM (inactive)
- GI50 [35]: > 100 µM (inactive)
- GI50 [36]: 98.4 µM (inactive)
- GI50 [37]: > 100 µM (inactive)
- GI50 [38]: > 100 µM (inactive)
- GI50 [39]: 42.3 µM (inactive)
- GI50 [40]: 37.3 µM (inactive)
- GI50 [41]: > 100 µM (inactive)
- GI50 [42]: 83 µM (inactive)
- GI50 [43]: 55 µM (inactive)
- GI50 [44]: > 100 µM (inactive)
- GI50 [45]: 61.1 µM (inactive)
- GI50 [46]: > 100 µM (inactive)
- GI50 [47]: 41.6 µM (inactive)
- GI50 [48]: > 100 µM (inactive)
- GI50 [49]: 55 µM (inactive)
- GI50 [50]: > 100 µM (inactive)
- GI50 [51]: 92.9 µM (inactive)
- GI50 [52]: 36 µM (inactive)

Structure (SMILES): COc1cc2c(c(OC)c1OC)[C@@H]1CCCCC[C@@H]1CCC2=O
- GI50 [1]: > 92.9 µM (inactive)
- GI50 [2]: 59.7 µM (inactive)
- GI50 [3]: > 100 µM (inactive)
- GI50 [4]: > 100 µM (inactive)
- GI50 [53]: 22.9 µM (inactive)
- GI50 [5]: > 49.4 µM (inactive)
- GI50 [6]: > 92.5 µM (inactive)
- GI50 [7]: 31.9 µM (inactive)
- GI50 [54]: > 66.7 µM (inactive)
- GI50 [8]: > 90.8 µM (inactive)
- GI50 [9]: 29.4 µM (inactive)
- GI50 [10]: > 100 µM (inactive)
- GI50 [11]: 97.3 µM (inactive)
- GI50 [12]: > 100 µM (inactive)
- GI50 [13]: 99.1 µM (inactive)
- GI50 [55]: 24 µM (inactive)
- GI50 [14]: > 100 µM (inactive)
- GI50 [15]: > 48.6 µM (inactive)
- GI50 [16]: > 100 µM (inactive)
- GI50 [56]: > 100 µM (inactive)
- GI50 [17]: > 100 µM (inactive)
- GI50 [18]: > 100 µM (inactive)
- GI50 [19]: 28.9 µM (inactive)
- GI50 [20]: > 91.8 µM (inactive)
- GI50 [21]: > 100 µM (inactive)
- GI50 [22]: > 100 µM (inactive)
- GI50 [23]: > 100 µM (inactive)
- GI50 [57]: 22.8 µM (inactive)
- GI50 [24]: > 94 µM (inactive)
- GI50 [25]: > 71.3 µM (inactive)
- GI50 [26]: > 71.6 µM (inactive)
- GI50 [27]: > 100 µM (inactive)
- GI50 [28]: 58.7 µM (inactive)
- GI50 [29]: 57.1 µM (inactive)
- GI50 [30]: > 75 µM
- GI50 [31]: > 100 µM (inactive)
- GI50 [32]: > 100 µM (inactive)
- GI50 [33]: > 100 µM (inactive)
- GI50 [34]: > 100 µM (inactive)
- GI50 [35]: 78.9 µM (inactive)
- GI50 [36]: > 100 µM (inactive)
- GI50 [38]: > 100 µM (inactive)
- GI50 [39]: > 100 µM (inactive)
- GI50 [40]: 38.4 µM (inactive)
- GI50 [41]: > 100 µM (inactive)
- GI50 [42]: > 100 µM (inactive)
- GI50 [43]: > 100 µM (inactive)
- GI50 [44]: 17.7 µM (inactive)
- GI50 [45]: 82.6 µM (inactive)
- GI50 [46]: > 58.6 µM (inactive)
- GI50 [47]: > 100 µM (inactive)
- GI50 [48]: > 100 µM (inactive)
- GI50 [49]: > 100 µM (inactive)
- GI50 [50]: > 100 µM (inactive)
- GI50 [58]: 57.5 µM (inactive)
- GI50 [59]: 33.3 µM (inactive)
- GI50 [51]: 76 µM (inactive)
- GI50 [52]: > 100 µM (inactive)
